One test concerns the target KRAS-WT (Homo sapiens, UniProt P01116). The test is described as follows: SOS-catalyzed nucleotide exchange assay (Procedure A, TR-FRET), KRAS-WT. Format: biochemical. Conditions: nucleotide exchange, read-out: KRAS WT GNE IC50. From the text: (§1) Procedure for SOS-Catalyzed Nucleotide Exchange Assay for KRAS-WT, G12C/D/V, G13D, HRAS, and NRAS (Procedure A)
(§2) Recombinant KRAS-G12C protein used in this assay has an additional triple mutation (C51S/C80L/C118S). Whereas KRAS-WT, G12D/V, G13D, HRAS and NRAS are in context of their WT protein sequence background. Specifically, the SOS-catalyzed nucleotide exchange assay utilizes a preformed TR-FRET complex containing a specific biotinylated RAS protein (KRAS-WT, G12C/V/D, G13D, HRAS, NRAS; described above) with Bodipy-GDP, and Terbium-streptavidin. Compounds are preincubated with this complex for 60 minutes. Subsequently, recombinant human SOS protein and unlabeled GTP are added to initiate the exchange reaction. Small molecule inhibitors stabilize the Bodipy-GDP complex whereas the untreated protein rapidly exchanges Bodipy-GDP for unlabeled GTP resulting in reduced TR-FRET signal.
(§3) To assemble the preformed TR-FRET complexes, each biotinylated RAS protein is diluted to 2 μM in an EDTA Buffer (20 mM HEPES pH 7.5, 50 mM sodium chloride, 10 mM EDTA, and 0.01% Tween) and incubated at room temperature for one hour. This mixture is then further diluted to 90 nM in an Assay Buffer (20 mM HEPES pH 7.5, 150 mM sodium chloride, 10 mM magnesium chloride, and 0.005% Tween) containing 15 nM of Terbium-Streptavidin (Invitrogen, catalog #PV3577) and 900 nM of Bodipy-GDP (Invitrogen, catalog #G22360) and incubated at room temperature for six hours. It should be noted that this preformed TR-FRET complex for each of the RAS protein were made ahead of time, aliquoted and stored at −80° C. until the day of the experiment.
(§4) Each test compound (10 mM stock in DMSO) is diluted in DMSO to make a final-10-point, 3-fold dilution and is acoustically dispensed into a 384-well assay plate (Corning, catalog #3820) using an Echo 550 (Labcyte). Each well of the assay plate receives 3 μL of a specific 3×RAS preformed TR-FRET complex and 3 μL of Assay Buffer and is incubated at room temperature for 60 minutes (preincubation time). Each well then receives 3 μL of 3×recombinant human SOS protein and GTP (Sigma, G8877) in Assay Buffer and is incubated at room temperature for 30 minutes (G13D), 60 minutes (KRAS WT/G12C/D, H/NRAS) or 90 minutes for G12V. The final reaction in each well of 9 μL consists of 3 mM GTP, specific Ras and SOS proteins in the following concentrations: KRAS-G12C/SOS=3 nM/40 nM, KRAS-WT and G12D/SOS=1 nM/40 nM, KRAS-G12V/SOS=1.25 nM/160 nM. KRAS-G13D/SOS=1.25 nM/0 nM, HRAS and NRAS=1.25 nM/40 nM.
(§5) The time-resolved fluorescence resonance energy transfer (TR-FRET) signal is measured on an Envision (PerkinElmer) plate reader: Excitation filter=340 nm; emission 1=495 nm; emission2=520 nm; dichroic mirror=D400/D505; delay time=[…]. The signal of each well is determined as the ratio of the emission at 520 nm to that at 495 nm. Percent effect of each well is determined after normalization to control wells containing DMSO (no effect) or a saturating concentration of inhibitor (max effect). The apparent effect as a function of compound concentration is fit to a four-parameter logistic equation.

The next test has as its target KRAS-G12D (Homo sapiens, UniProt P01116, G12D). The test is described as follows: SOS-catalyzed nucleotide exchange assay (Procedure A, TR-FRET), KRAS-G12D. Format: biochemical. To be noted: nucleotide exchange, read-out: KRAS G12D GNE IC50.
Text: as §1, §2, §3, §4, §5
For orientation: TR-FRET usually uses a lanthanide donor and a delayed reading to cut background.

The target of the next test is KRAS-G12V (Homo sapiens, UniProt P01116, G12V). The test is described as follows: SOS-catalyzed nucleotide exchange assay (Procedure A, TR-FRET), KRAS-G12V. The test is classed as biochemical. To be noted: nucleotide exchange, read-out: KRAS G12V GNE IC50.
KRAS-G12V, sequence (P01116 with tags, fused parts or gaps isoform P01116-2 G12V): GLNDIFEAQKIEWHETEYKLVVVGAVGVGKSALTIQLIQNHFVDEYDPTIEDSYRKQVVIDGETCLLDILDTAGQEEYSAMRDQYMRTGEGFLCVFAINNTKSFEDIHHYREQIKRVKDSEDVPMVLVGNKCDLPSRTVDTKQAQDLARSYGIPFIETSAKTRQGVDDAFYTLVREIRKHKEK
Text: as §1, §2, §3, §4, §5

In another test the test system is AsPC-1 cells. The test is described as follows: Cellular phospho-ERK assay, AsPC-1 cells (homozygous KRAS-G12D). Format: cell-based. Conditions: Homo sapiens, ASPC1, 2 h, read-out: AsPC1 pERK IC50. On the procedure: Procedure for Cellular Phospho-ERK Assay in KRAS Wild Type and Mutant (G12D, G12V) Cell Lines
MKN-1 cells (JCRB JCRB0252) containing amplified wild-type KRAS, were cultured in growth medium that contains RPMI 1640-GlutaMAX™-I (ThermoFisher Scientific 61870) containing 10% heat inactivated fetal bovine serum (ThermoFisher Scientific 10091148), 1 mM sodium pyruvate and 10 mM HEPES. PANC08.13 cells (ATCC® CRL-2551™), containing homozygous KRAS-G12D activating mutation, were cultured in growth medium made of RPMI1640-GlutaMAX™-I (ThermoFisher Scientific 61870) containing 15% heat inactivated fetal bovine serum (ThermoFisher Scientific 10091148)). AsPC-1 cells (ATCC® CRL-1682™), containing homozygous KRAS-G12D activating mutation, were cultured in T150 flask in growth medium (RPMI medium 1640-GlutaMAX™-I (ThermoFisher Scientific 61870) containing 10% fetal bovine serum (ThermoFisher Scientific 10091148)). SW620 cells (ATCC® […]), containing homozygous KRAS-G12V activating mutation, were cultured in growth medium that contains RPMI 1640-GlutaMAX™-I (ThermoFisher Scientific 61870) containing 10% heat inactivated fetal bovine serum (ThermoFisher Scientific 10091148).
Cells for the assay were harvested in growth medium after TrypLE (ThermoFisher scientific 12604021) digestion and were seeded in a 384-well collagen coated cell culture plate (Corning 356702) at a density of 10,000-15,000 cells/20 μL/well, and incubated at 37° C., 5% CO2 overnight. The compound (with 10 mM stock concentration) dose-response titrations were prepared [30 μM final ERK detection assay concentration and 1:3 dilutions, 10-point dose response] and appropriate amounts (270 nL) of test compounds were dispensed in a 384-well intermediate plate using an Echo 550 liquid handler. 30 μL/well of RPMI medium 1640-GlutaMAX™—I was added to the intermediate plate and the contents of the intermediate plate (10 μL/well) were then transferred to the 384-well collagen coated cell culture plate, which was incubated at 37° C., 5% CO2 for 2 hours. After removal of medium from the collagen coated cell culture plate, cells were lysed in lysis buffer from Alpha SureFire® Ultra™ Multiplex p-ERK and total ERK assay kit (PerkinElmer MPSU-PTERK) containing Halt™ Protease and Phosphatase inhibitor cocktail (ThermoFisher Scientific 78446) at room temperature with constant shaking at 300 rpm for 30 minutes. The cell lysates were then transferred to an OptiPlate-384 plate (PerkinElmer 6005620), and the phosphorylation of ERK (p-ERK) and total ERK levels were detected by Alpha SureFire® Ultra™ Multiplex p-EEK kit and total ERK assay kit (PerkinElmer MPSU-PTERK) following the manufacturer's protocol. Assay plates were read on a En Vision Multimode Plate Reader (PerkinElmer), and the ratio of p-ERK vs. total ERK in each well was used as the final readout. Dose response curves were analyzed using a 4-parameter logistic model to calculate IC50 values using Spotfire software.

pIC50: −log10 of the molar value. Like-named read-outs stand apart in the source and are kept apart here.

KRAS-G12D, sequence (P01116 with tags, fused parts or gaps isoform P01116-2 G12D): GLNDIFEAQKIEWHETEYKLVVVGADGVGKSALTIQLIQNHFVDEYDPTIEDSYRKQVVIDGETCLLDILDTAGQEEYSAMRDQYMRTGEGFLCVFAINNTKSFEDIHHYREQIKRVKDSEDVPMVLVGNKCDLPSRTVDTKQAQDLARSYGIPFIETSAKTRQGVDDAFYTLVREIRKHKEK
KRAS-WT, sequence (P01116 with tags, fused parts or gaps isoform P01116-2): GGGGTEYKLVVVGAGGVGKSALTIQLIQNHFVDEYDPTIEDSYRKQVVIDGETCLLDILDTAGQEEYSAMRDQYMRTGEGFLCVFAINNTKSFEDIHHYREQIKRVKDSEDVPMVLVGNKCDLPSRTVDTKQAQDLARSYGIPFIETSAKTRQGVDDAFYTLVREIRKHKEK

The term pIC50 denotes the negative decadic logarithm of the IC50, by convention in mol/L. For `C=C1CN2C[C@@H](F)C[C@@]2(COc2nc(N3CCOC[C@@](C)(O)C3)c3c(n2)sc2c(-c4c(C5CC5)c(Cl)cc5[nH]ncc45)nccc23)C1` [Ex-222, (6S)-4-(8-(6-chloro-5-cyclopropyl-1H-indazol-4-yl)-2-(((2S,7aR)-2-fluoro-6-methylenetetra-hydro-1H-pyrrol-izin-7a(5H)-yl)methoxy)pyrido [4′,3′:4,5]thieno[2,3-d]pyrimidin-4-yl)-6-methyl-1,4-oxaze-pan-6-ol], the negative-log IC50 (pIC50) was 6.98 at KRAS-WT, 7.53 on KRAS-G12D, 7.34 on KRAS-G12V and 6.61 in the test with AsPC-1 cells (2 hours compound incubation).

Take `Cc1cc2[nH]ncc2c(-c2nccc3c2sc2nc(OC[C@@]45CCCN4C[C@H](F)C5)nc(NCC4COC4)c23)c1C(F)(F)F` [Ex-186, 2-(((2R,7aS)-2-fluorotetra-hydro-1H-pyrrolizin-7a(5H)-yl)methoxy)-8-(6-methyl-5-(trifluorometh-yl)-1H-indazol-4-yl)-N-(oxetan-3-ylmethyl)pyrido [4′,3′:4,5]thieno[2,3-d] pyrimidin-4-amine]: the negative logarithm of the IC50 (pIC50) on KRAS-WT is 6.01; at KRAS-G12D it was 6.39; on KRAS-G12V it was 6.36; in the test on AsPC-1 cells (2 hours compound incubation), 5.60.

On to `COC(=O)c1cc2[nH]ncc2c(-c2nccc3c2sc2nc(OC[C@@]45CCCN4C[C@H](F)C5)nc(N4CCOC[C@@](C)(O)C4)c23)c1C1CC1` [Ex-49, Methyl 5-cyclopropyl-4-(2-(((2R,7aS)-2-fluorotetrahydro-1H-pyrrolizin-7a(5H)-yl)methoxy)-4-((S)-6-hydroxy-6-methyl-1,4-oxazepan-4-yl)pyrido[4′,3′:4,5]thieno [2,3-d]pyrimidin-8-yl)-1H-indazole-6-carboxylate], for which the negative logarithm of the IC50 (pIC50) was 7.13 on KRAS-WT; 7.40 at KRAS-G12D; 7.23 at KRAS-G12V; 5.71 with AsPC-1 cells (KRAS-G12D, 2 hours).

Regarding `C=C(c1c(C)cc2[nH]ncc2c1-c1nccc2c1sc1nc(OC[C@@]34CCCN3C[C@H](F)C4)nc(N3CCOC[C@@](C)(O)C3)c12)C(F)(F)F` [Ex-66, (6S)-4-(2-(((2R,7aS)-2-fluorotetrahydro-1H-pyrrolizin-7a(5H)-yl)methoxy)-8-(6-methyl-5-(3,3,3-trifluoroprop-1-en-2-yl)-1H-indazol-4-yl)pyrido[4′,3′:4,5]thieno [2,3-d]pyrimidin-4-yl)-6-methyl-1,4-oxazepan-6-ol], the pIC50 is 6.66 at KRAS-WT; 7.03 on KRAS-G12D; 7.24 on KRAS-G12V; 6.34 in the test on AsPC-1 cells (KRAS-G12D, 2 hours).

For the compound `C[C@@]1(O)COCCN(c2nc(OC[C@@]34CCCN3C[C@H](F)C4)nc3sc4c(-c5c(C67CC(C6)C7)ccc6[nH]ncc56)nccc4c23)C1` [Ex-42, (6S)-4-(8-(5-(bicyclo[1.1.1]pentan-1-yl)-1H-indazol-4-yl)-2-(((2R,7aS)-2-fluorotetrahydro-1H-pyrrolizin-7a(5H)-yl)methoxy)pyrido[4′,3′:4,5]thi-eno[2,3-d]pyrimidin-4-yl)-6-methyl-1,4-oxazepan-6-ol], the pIC50 was 6.54 on KRAS-WT; 6.87 at KRAS-G12D; 6.84 on KRAS-G12V; 5.86 in the test on AsPC-1 cells (KRAS-G12D, 2 hours).

On to `Cc1cc2cnn(C)c2c(-c2nccc3c2sc2nc(OC[C@@]45CCCN4C[C@H](F)C5)nc(N4CCOC[C@@](C)(O)C4)c23)c1C(F)(F)F` [Ex-157, (6S)-4-(8-(1,5-dimethyl-6-(trifluoromethyl)-1H-indazol-7-yl)-2-(((2R,7aS)-2-fluorotetrahydro-1H-pyrrolizin-7a(5H)-yl)methoxy)pyrido[4′,3′:4,5]thieno[2,3-d]pyrimidin-4-yl)-6-methyl-1,4-oxazepan-6-ol], for which the negative logarithm of the IC50 (pIC50) at KRAS-WT is 5.02; on KRAS-G12D, 6.54; at KRAS-G12V, 5.37; in the test with AsPC-1 cells (2 hours compound incubation), 5.88.

Consider `Cc1cc2[nH]ncc2c(-c2nccc3c2sc2nc(OC[C@@]45CCCN4C[C@H](F)C5)nc(N4CCC[C@@]5(CNC(=O)O5)C4)c23)c1C(F)(F)F` [Ex-196, (5R)-7-(2-(((2R,7aS)-2-fluorotetrahydro-1H-pyr-rolizin-7a(5)-yl)methoxy)-8-(6-methyl-5-(trifluoro-methyl)-1H-indazol-4-yl)-pyrido[4′,3′:4,5]thieno[2,3-d]pyrimidin-4-yl)-1-oxa-3,7-diazaspiro[4.5]decan-2-one], for which the pIC50 at KRAS-WT was 7.45; at KRAS-G12D, 8.09; at KRAS-G12V it was 7.71; in the test on AsPC-1 cells (2 hours compound incubation) it was 5.73.

As to `COCC12CC(CN1C[C@@]1(COc3nc(N4CCOC[C@@](C)(O)C4)c4c(n3)sc3c(-c5c(C6(F)CC6)c(Cl)cc6[nH]ncc56)nccc34)CC1(F)F)C2` [Ex-258, (6S)-4-(8-(6-chloro-5-(1-fluorocyclopropyl)-1H-indazol-4-yl)-2-(((R)-2,2-difluoro-1-((1-(methoxymethyl)-2-azabicyclo[2.1.1]hexan-2-yl)methyl)cyclopropyl)metho-xy)pyrido[4′,3′:4,5]thieno[2,3-d]pyrimidin-4-yl)-6-methyl-1,4-oxazepan-6-ol], the negative-log IC50 (pIC50) was 7.41 on KRAS-WT, 8.15 on KRAS-G12D, 7.60 on KRAS-G12V and 6.91 in the test with AsPC-1 cells (2 hours compound incubation).

The values are drawn from patent US20260176289A1, “SMALL MOLECULE INHIBITORS OF KRAS PROTEINS” (Merck Sharp & Dohme LLC, priority 2022, published 2026).
